{"source": "patent US20260165949A1", "about": "“COMPOSITION CONTAINING N-NONYLDEOXYNOJIRIMYCIN FOR SUPPRESSION, ALLEVIATION, PALLIATION, OR TREATMENT OF SKIN ITCHING” (CHA UNIVERSITY INDUSTRY-ACADEMIC COOPERATION FOUNDATION, priority 2022, published 2026)", "key": {"hepatic glycogenolysis": {"test_system": "hepatic glycogenolysis", "conditions": "in vivo; cited from earlier work"}, "RBL-2H3 cells": {"test_system": "RBL-2H3 cells", "experiment": "β-hexosaminidase release induced by PMA/A23187 stimulation (degranulation) in RBL-2H3 cells", "format": "cell-based", "method": "(§1) Mast cells (RBL-2H3 cells) were purchased from ATCC (American Type Culture Collection, USA). RBL-2H3 cells were cultured in a DMEM medium (Dulbecco's Modified Eagle's medium (high glucose), Hyclone, USA) containing 10% fetal bovine serum (FBS) and 1% penicillin/streptomycin at 37° C. in a 5% CO2 incubator.\nIn order to evaluate the inhibitory effects against degranulation of RBL-2H3 cells, β-hexosaminidase release was measured for various compounds. Specifically, the cultured RBL-2H3 cells were seeded at 2×10^5 cells/well in each well of a 24-well plate for cell culture and cultured in a DMEM medium containing 10% FBS and 1% penicillin/streptomycin. After 24 hours, the existing medium was removed. The cells were washed twice with an extracellular buffer (5 mM KCl, 119 mM NaCl, 25 mM PIPES, 0.4 mM MgCl2, 1 mM CaCl2), 40 mM NaOH, 5.6 mM glucose, 0.1% BSA, pH 7.2) and the medium was replaced with the extracellular buffer. […] After the reaction was terminated by adding a stop solution (0.1 M carbonate buffer, pH 10), the absorbance was measured at 405 nm using a microplate reader.\nThe β-hexosaminidase release was measured in the same manner as in Example 2, except that N-nonyldeoxynojirimycin was treated at various concentrations (1 to 200 μM)."}, "glucosidase": {"test_system": "glucosidase", "conditions": "cited from earlier work"}, "[1]": {"test_system": "IL-6 release in HaCaT cells", "experiment": "IL-6 release induced by TNF-α/IFN-γ stimulation in HaCaT cells (ELISA)", "format": "cell-based", "conditions": "various concentrations; TNF-α and IFN-γ 10 ng/ml each, 24 hours; FIG. 4", "method": "(§2) Epidermal cells (HaCaT cells) were purchased from Thermo Fisher Scientific (USA). HaCaT cells were cultured in a DMEM medium (Dulbecco's Modified Eagle's medium (high glucose), Hyclone, USA) containing 10% fetal bovine serum (FBS) and 1% penicillin/streptomycin at 37° C. in a 5% CO2 incubator.\n(§3) In order to evaluate the inhibitory effects against IL-6, CCL17, and CCL22 release induced by TNF-α and IFN-γ stimulation in HaCaT cells, an epidermal cell model for the itching associated with the skin barrier, we used a IL-6 ELISA kit (Abcam, UK), a CCL17 ELISA kit (R&D Systems, USA), and a CCL22 ELISA kit (R&D Systems, USA). HaCaT cells were seeded at 1×10^6 cells/well in each well of a coated 6-well plate for cell culture and cultured in a DMEM medium containing 10% FBS and 1% antibiotics (penicillin/streptomycin). After 24 hours, the existing medium was removed. The cells were washed with PBS and a DMEM medium without FBS was added thereto. After N-nonyldeoxynojirimycin was treated at various concentrations, the cells were cultured for 1 hour at 37° C. in a 5% CO2 incubator. The cells were treated with TNF-α and IFN-γ at 10 ng/ml each and then incubated for an additional 24 hours. The cell culture mixture was collected in a 1.5 ml tube and then centrifuged at 2,000 rcf. […] After completion of the reaction, the absorbance was measured at 450 nm using a microplate reader. […]"}, "[2]": {"test_system": "PGE2 release in RBL-2H3 cells", "experiment": "PGE2 release induced by PMA/A23187 stimulation in RBL-2H3 cells (ELISA)", "format": "cell-based", "conditions": "1 to 40 μM; 50 nM PMA and 1 μM A23187 for 30 minutes; FIG. 3", "method": "as §1\nIn order to evaluate the inhibitory effects against […] (PGE2) release of RBL-2H3 cells according to the treatment of N-nonyldeoxynojirimycin, an enzyme-linked immunosorbent assay (ELISA) was performed using a PGE2 ELISA kit (R&D Systems, USA). Specifically, the cultured RBL-2H3 cells were seeded at 1×10^6 cells/well in each well of a 6-well plate for cell culture and cultured in the same manner as in Example 2. After 24 hours, the existing medium was removed. The cells were washed with PBS and a DMEM medium without FBS was added thereto. After N-nonyldeoxynojirimycin was treated at various concentrations (1 to 40 μM), the cells were cultured for 1 hour at 37° C. in a 5% CO2 incubator. The cells were treated with 50 nM of PMA and 1 μM of A23187 and incubated for an additional 30 minutes. The cell culture mixture was collected in a 1.5 ml tube and then centrifuged at 2,000 rcf. The supernatant thereof was subject to the ELISA analysis using a PGE2 ELISA kit (R&D Systems, USA). After completion of the reaction, the absorbance was measured at 450 nm using a microplate reader."}, "[3]": {"test_system": "CCL22 release in HaCaT cells", "experiment": "CCL22 release induced by TNF-α/IFN-γ stimulation in HaCaT cells (ELISA)", "format": "cell-based", "conditions": "various concentrations; TNF-α and IFN-γ 10 ng/ml each, 24 hours; FIG. 6", "method": "as §2, §3"}, "[4]": {"test_system": "CCL17 release in HaCaT cells", "experiment": "CCL17 release induced by TNF-α/IFN-γ stimulation in HaCaT cells (ELISA)", "format": "cell-based", "conditions": "various concentrations; TNF-α and IFN-γ 10 ng/ml each, 24 hours; FIG. 5", "method": "as §2, §3"}}, "data": [{"smiles": "CCCCCCCCCN1C[C@H](O)[C@@H](O)[C@H](O)[C@H]1CO", "note": "[N-nonyldeoxynojirimycin]", "values": [{"measurement": "inhibition of hepatic glycogenolysis", "setting": "hepatic glycogenolysis", "result": "known to inhibit hepatic glycogenolysis in vivo"}, {"measurement": "inhibitory effect against β-hexosaminidase release according to treatment concentration", "setting": "RBL-2H3 cells; 1 to 200 μM, PMA/A23187 stimulation, FIG. 2", "result": "inhibits the β-hexosaminidase release in a concentration-dependent manner"}, {"measurement": "inhibitory effect against β-hexosaminidase release", "setting": "RBL-2H3 cells; test material 20 μM, 1 hour, then 50 nM PMA and 1 μM A23187 for 30 minutes, FIG. 1", "result": "remarkably inhibited the β-hexosaminidase release compared to other alkaloid analogues"}, {"measurement": "glucosidase inhibitory activity", "setting": "glucosidase", "result": "has a glucosidase inhibitory activity"}, {"measurement": "inhibitory effect against IL-6 release", "setting": "[1]", "result": "inhibited the IL-6, CCL17, and CCL22 releases"}, {"measurement": "inhibitory effect against PGE2 release", "setting": "[2]", "result": "inhibited the PGE2 release in a concentration-dependent manner"}, {"measurement": "inhibitory effect against CCL22 release", "setting": "[3]", "result": "inhibited the IL-6, CCL17, and CCL22 releases"}, {"measurement": "inhibitory effect against CCL17 release", "setting": "[4]", "result": "inhibited the IL-6, CCL17, and CCL22 releases"}]}]}
